Test results as given in patent US10689370B2, “Cyclopropane carboxamide modulators of cystic fibrosis transmembrane conductance regulator” (Auspex Pharmaceuticals, Inc., priority 2014, dated 2020).

Experiment: In vitro human liver microsomal stability assay
Format: in vitro ADME
Settings: human liver microsomes 2 mg per mL protein, NADPH-generating system, 1 uM test compound, 37 °C, 0-240 min; for half-life % change over d0: degradation half-life relative to non-deuterated d0 (Example 1); for Clearance % change over d0: relative to non-deuterated d0 (Example 1)
Experimental: In Vitro Liver Microsomal Stability Assay
Human liver microsomal stability assays were conducted at 2 mg per mL liver microsome protein with an NADPH-generating system consisting of NADP (1 mM, pH 7.4), glucose 6-phosphate (5 mM, pH 7.4) and glucose 6-phosphate dehydrogenase (I unit/mL). Test compounds were prepared as solutions in DMSO and added to the assay mixture (1 uM, final concentration in incubation) and incubated at 37±1° C. Reactions were initiated with addition of the test compounds and stopped at 0, 60, 120 or 240 min after test article addition with stop reagent, acetonitrile. Samples were centrifuged (920×g for 10 min at 10° C.) in 96-well plates. Supernatant fractions were analyzed by LC-MS/MS to determine the percent remaining and estimate the degradation half-life of the test compounds.

SMILES	half-life % change over d0	Clearance % change over d0
[2H]C([2H])([2H])C(CO)(c1cc2cc(NC(=O)C3(c4ccc5c(c4)OC(F)(F)O5)CC3)c(F)cc2n1C[C@@H](O)CO)C([2H])([2H])[2H] [Example 3, 1-(2,2-difluoro-2H-1,3-benzodioxol-5-yl)-N-[1-[(2R)-2,3-dihydroxypropyl]-6-fluoro-2-[1-hydroxy-2-methyl(^2H6)propan-2-yl]-1H-indol-5-yl]cyclopropane-1-carboxamide]	13.3%	−11.9%
CC(C)(CO)c1cc2cc(NC(=O)C3(c4ccc5c(c4)OC(F)(F)O5)CC3)c(F)cc2n1C[C@@H](O)CO [Example 1, (R)-1-(2,2-difluorobenzo[d][1,3]dioxol-5-yl)-N-(1-(2,3-dihydroxypropyl)-6-fluoro-2-(1-hydroxy-2-methylpropan-2-yl)-1H-indol-5-yl)cyclopropanecarboxamide, reference compound]	0.0%	0.0%
[2H]C([2H])(O)C(C)(C)c1cc2cc(NC(=O)C3(c4ccc5c(c4)OC(F)(F)O5)C([2H])([2H])C3([2H])[2H])c(F)cc2n1C[C@@H](O)CO [Example 6]	281.8%	−73.8%
[2H]C([2H])(O)[C@H](O)Cn1c(C(C)(C)CO)cc2cc(NC(=O)C3(c4ccc5c(c4)OC(F)(F)O5)CC3)c(F)cc21 [Example 8, (R)1-(2,2-difluoro-2H-1,3-benzodioxol-5-yl)-N-[1-[2,3-dihydroxy(3,3-^2H2)propyl]-6-fluoro-2-(1-hydroxy-2-methylpropan-2-yl)-1H-indol-5-yl]cyclopropane-1-carboxamide]	4.8%	−4.8%
[2H]C([2H])(O)[C@]([2H])(O)Cn1c(C(C)(C)CO)cc2cc(NC(=O)C3(c4ccc5c(c4)OC(F)(F)O5)CC3)c(F)cc21 [Example 4, (R)1-(2,2-difluoro-2H-1,3-benzodioxol-5-yl)-N-[1-[2,3-dihydroxy(2,3,3-^2H3)propyl]-6-fluoro-2-(1-hydroxy-2-methylpropan-2-yl)-1H-indol-5-yl]cyclopropane-1-carboxamide]	4.8%	−4.8%
[2H]C([2H])([2H])C(CO)(c1cc2cc(NC(=O)C3(c4ccc5c(c4)OC(F)(F)O5)C([2H])([2H])C3([2H])[2H])c(F)cc2n1C[C@@H](O)CO)C([2H])([2H])[2H] [Example 7, (R)-1-(2,2-difluorobenzo[d][1,3]dioxol-5-yl)-N-(1-(2,3-dihydroxypropyl)-6-fluoro-2-(1-hydroxy-2-methyl(^2H6)propan-2-yl)-1H-indol-5-yl)(^2H4)cyclopropanecarboxamide]	−4.2%	4.8%
[2H]C([2H])(O)C(C)(C)c1cc2cc(NC(=O)C3(c4ccc5c(c4)OC(F)(F)O5)CC3)c(F)cc2n1C[C@@H](O)CO [Example 2]	200.0%	−66.7%
[2H]C([2H])(O)C(C)(C)c1cc2cc(NC(=O)C3(c4ccc5c(c4)OC(F)(F)O5)CC3)c(F)cc2n1C[C@@]([2H])(O)C([2H])([2H])O [Example 5, (R)1-(2,2-difluoro-2H-1,3-benzodioxol-5-yl)-N-[1-[2,3-dihydroxy(2,3,3-^2H3)propyl]-6-fluoro-2-(1-hydroxy-2-methyl(1,1-^2H2)propan-2-yl)-1H-indol-5-yl]cyclopropane-1-carboxamide]	250.3%	−71.4%
